For 25 molecules, IC50 results are on record in US20250144094A1 (Erasca, Inc., priority 2021, published 2025).

This assay addresses Recombinant human ULK1 (1-649) (Homo sapiens (Human), UniProt O75385). Nature of the assay: ULK1 ADP Glo kinase activity assay (MBP substrate). The settings on record: 25° C., 40 minutes, read-out: ULK1 biochemical IC50. The procedure: Recombinant human ULK1 (1-649) protein expressed in Sf9 insect cells was obtained from SignalChem (Vancouver, BC), catalog #U01-11G. Active kinase was purified via N-terminal GST tag to >85% purity.
ADP GLO Kinase Assay Reagents were obtained from Promega Corp (Madison, WI), catalog #V9104.
MBP (myelin basic protein) substrate, bovine, purified, was obtained from Sigma (St. Louis, MO), catalog #M1891.
ULK1 inhibitor potency was determined using the luminescent ADP Glo Kinase Assay (Promega), a universal ADP detection system that measures kinase activity by quantifying the amount of ADP produced during a kinase reaction. ULK1 kinase reactions are performed in a standard 96-well microplate (20 uL reaction volume) at 25° C. for 40 minutes in the presence or absence of the test compound (12-point dilution series starting at 10 uM). Addition of MBP substrate and ATP initiates the kinase reaction.
The standard ADP Glo assay is performed in two steps. In step one, following the kinase reaction, an equal volume of ADP-Glo™ Reagent (20 uL) is added to terminate the kinase reaction and deplete the remaining ATP. In the second step, the Kinase Detection Reagent (10 uL) is added to simultaneously convert ADP to ATP and allow the newly synthesized ATP to be measured using a luciferase/luciferin reaction. Step two of the ADP Glo assay is performed in a white 384-well plate (20 uL final volume). Thirty minutes after the addition of the Detection reagent, light generated from the luciferase reaction is measured (1 second exposure) using a microplate compatible luminometer (CLARIOstar, BMG Labtech).
Inhibition of ULK1 kinase activity is determined for each test compound by comparison to DMSO only control wells. Inhibitor IC50 was calculated by plotting the change in luminescence after 30 minutes (response) versus inhibitor concentration (in log molar) then applying the four-parameter variable slope curve fit (GraphPad Prism). Inhibition of ULK1 in biochemical assay is found in Table 3.
On the technique in general: In ADP-Glo the light output rises with the ADP produced.

A value given as a limit tells only on which side of the number the result lay.

Sequence of Recombinant human ULK1 (1-649) (O75385 1-649): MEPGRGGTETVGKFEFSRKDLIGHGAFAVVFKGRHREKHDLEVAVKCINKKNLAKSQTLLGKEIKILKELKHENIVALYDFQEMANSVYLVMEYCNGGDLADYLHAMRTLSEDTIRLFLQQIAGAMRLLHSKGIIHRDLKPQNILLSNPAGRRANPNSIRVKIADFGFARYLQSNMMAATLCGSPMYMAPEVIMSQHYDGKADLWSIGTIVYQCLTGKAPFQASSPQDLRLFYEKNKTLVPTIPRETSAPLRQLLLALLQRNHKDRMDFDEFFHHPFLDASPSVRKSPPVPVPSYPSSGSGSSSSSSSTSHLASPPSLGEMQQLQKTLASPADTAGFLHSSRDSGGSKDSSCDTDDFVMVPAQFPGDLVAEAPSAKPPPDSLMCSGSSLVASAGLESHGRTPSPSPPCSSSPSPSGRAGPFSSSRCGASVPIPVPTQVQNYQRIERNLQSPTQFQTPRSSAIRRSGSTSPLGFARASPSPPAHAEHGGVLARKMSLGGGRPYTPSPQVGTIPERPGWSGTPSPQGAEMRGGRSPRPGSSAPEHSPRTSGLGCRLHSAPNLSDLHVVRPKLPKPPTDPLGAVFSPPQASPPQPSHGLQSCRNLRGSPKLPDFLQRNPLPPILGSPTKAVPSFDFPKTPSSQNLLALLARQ

Turning to `O=C1NCCS(=O)(=O)c2cc(-c3nc(Nc4cc5c(cc4Cl)CN(CC(F)(F)F)CC5)ncc3C(F)(F)F)sc21` [Example 125, 7-(2-((7-chloro-2-(2,2,2-trifluoroethyl)-1,2,3,4-tetrahydroisoquinolin-6-yl)amino)-5-(trifluoromethyl)pyrimidin-4-yl)-3,4-dihydrothieno[2,3-f][1,4]thiazepin-5(2H)-one 1,1-dioxide], the IC50 was in the range of 100 to 500 nM. Under `CS(=O)(=O)c1csc(-c2nc(Nc3cc4c(cc3Cl)CCNC4)ncc2C(F)(F)F)c1` [Example 99, 6-chloro-N-(4-(4-(methylsulfonyl)thiophen-2-yl)-5-(trifluoromethyl)pyrimidin-2-yl)-1,2,3,4-tetrahydroisoquinolin-7-amine] stands at most 10 nM; under `CN1CC(N2CCc3cc(Nc4ncc(C(F)(F)F)c(-c5cc(C(N)=O)cs5)n4)c(Cl)cc3C2)C1` [Example 11, 5-(2-((7-chloro-2-(1-methylazetidin-3-yl)-1,2,3,4-tetrahydroisoquinolin-6-yl)amino)-5-(trifluoromethyl)pyrimidin-4-yl)thiophene-3-carboxamide], 10 to 50 nM. For the molecule `CN1CCc2sc(-c3nc(Nc4cc5c(cc4Cl)CNCC5)ncc3C(F)(F)F)cc2C1=O` [Example 21, 2-(2-((7-Chloro-1,2,3,4-tetrahydroisoquinolin-6-yl)amino)-5-(trifluoromethyl)pyrimidin-4-yl)-5-methyl-6,7-dihydrothieno[3,2-c]pyridin-4(5H)-one], the 50% inhibitory concentration (IC50) was at most 10 nM.

Take `CCc1cc2c(cc1Nc1ncc(C(F)(F)F)c(-c3cc(S(C)(=O)=O)cs3)n1)CN(C)C2` [Example 76, 6-ethyl-2-methyl-N-(4-(4-(methylsulfonyl)thiophen-2-yl)-5-(trifluoromethyl)pyrimidin-2-yl)isoindolin-5-amine]: the concentration for half-maximal inhibition (IC50) was 10 to 50 nM. Then `CS(=O)(=O)Nc1csc(-c2nc(Nc3cc4c(cc3Cl)CNCC4)ncc2C(F)(F)F)c1` [Example 16, N-(5-(2-((7-chloro-1,2,3,4-tetrahydroisoquinolin-6-yl)amino)-5-(trifluoromethyl)pyrimidin-4-yl)thiophen-3-yl)methanesulfonamide], with at most 10 nM; and `CS(=O)(=O)c1cc(-c2nc(Nc3cc4c(cc3Cl)CNCC4)ncc2C(F)(F)F)sc1C1CCS(=O)(=O)CC1` [Example 104, 4-(5-(2-((7-chloro-1,2,3,4-tetrahydroisoquinolin-6-yl)amino)-5-(trifluoromethyl)pyrimidin-4-yl)-3-(methylsulfonyl)thiophen-2-yl)tetrahydro-2H-thiopyran 1,1-dioxide], with at most 10 nM. In the case of `COCCS(=O)(=O)c1csc(-c2nc(Nc3cc4c(cc3Cl)CNCC4)ncc2C(F)(F)F)c1` [Example 52, 7-chloro-N-(4-(4-((2-methoxyethyl)sulfonyl)thiophen-2-yl)-5-(trifluoromethyl)pyrimidin-2-yl)-1,2,3,4-tetrahydroisoquinolin-6-amine], the IC50 was at most 10 nM. Under `O=C1NCCOc2sc(-c3nc(Nc4cc5c(cc4Cl)CNCC5)ncc3C(F)(F)F)cc21` [Example 71, 7-(2-((7-chloro-1,2,3,4-tetrahydroisoquinolin-6-yl)amino)-5-(trifluoromethyl)pyrimidin-4-yl)-3,4-dihydrothieno[3,2-f][1,4]oxazepin-5(2H)-one] stands at most 10 nM; under `O=c1[nH]ccc2sc(-c3nc(Nc4cc5c(cc4Cl)CNCC5)ncc3C(F)(F)F)cc12` [Example 23, 2-(2-((7-Chloro-1,2,3,4-tetrahydroisoquinolin-6-yl)amino)-5-(trifluoromethyl)pyrimidin-4-yl)thieno[3,2-c]pyridin-4(5H)-one], at most 10 nM. As for `CCS(=O)(=O)c1csc(-c2nc(Nc3cc4c(cc3Cl)CNCC4)ncc2C(F)(F)F)c1` [Example 51, 7-chloro-N-(4-(4-(ethylsulfonyl)thiophen-2-yl)-5-(trifluoromethyl)pyrimidin-2-yl)-1,2,3,4-tetrahydroisoquinolin-6-amine], the 50% inhibitory concentration (IC50) was at most 10 nM. Regarding `CN1CCN(c2ccc(Nc3ncc(C(F)(F)F)c(-c4cc(S(C)(=O)=O)cs4)n3)cc2)CC1` [Example 103, N-(4-(4-methylpiperazin-1-yl)phenyl)-4-(4-(methylsulfonyl)thiophen-2-yl)-5-(trifluoromethyl)pyrimidin-2-amine], the IC50 is at most 10 nM. Then `Cc1nc(=O)c2cc(-c3nc(Nc4cc5c(cc4Cl)CNCC5)ncc3C(F)(F)F)sc2[nH]1` [Example 50, 6-(2-((7-chloro-1,2,3,4-tetrahydroisoquinolin-6-yl)amino)-5-(trifluoromethyl)pyrimidin-4-yl)-2-methylthieno[2,3-d]pyrimidin-4(1H)-one], with over 500 nM; and `CN1CCN(c2ccc(Nc3ncc(C(F)(F)F)c(-c4cc5c(s4)CCNC5=O)n3)c(C3CC3)c2)CC1` [Example 36, 2-(2-((2-Cyclopropyl-4-(4-methylpiperazin-1-yl)phenyl)amino)-5-(trifluoromethyl)pyrimidin-4-yl)-6,7-dihydrothieno[3,2-c]pyridin-4(5H)-one], with at most 10 nM; and `COCCN1CCCc2sc(-c3nc(Nc4cc5c(cc4Cl)CNCC5)ncc3C(F)(F)F)cc2C1=O` [Example 41, 2-(2-((7-chloro-1,2,3,4-tetrahydroisoquinolin-6-yl)amino)-5-(trifluoromethyl)pyrimidin-4-yl)-5-(2-methoxyethyl)-5,6,7,8-tetrahydro-4H-thieno[3,2-c]azepin-4-one], with 10 to 50 nM. For the molecule `Cc1cc2c(cc1Nc1ncc(C(F)(F)F)c(-c3cc(S(C)(=O)=O)cs3)n1)CN(C)C2` [Example 92, 2,6-dimethyl-N-(4-(4-(methylsulfonyl)thiophen-2-yl)-5-(trifluoromethyl)pyrimidin-2-yl)isoindolin-5-amine], the 50% inhibitory concentration (IC50) was at most 10 nM. With `O=C1NCCCc2sc(-c3nc(Nc4cc5c(cc4Cl)CCNC5)ncc3C(F)(F)F)cc21` [Example 46, 2-(2-((6-chloro-1,2,3,4-tetrahydroisoquinolin-7-yl)amino)-5-(trifluoromethyl)pyrimidin-4-yl)-5,6,7,8-tetrahydro-4H-thieno[3,2-c]azepin-4-one], the IC50 was at most 10 nM. Under `O=S1(=O)CCNCc2sc(-c3nc(Nc4cc5c(cc4Cl)CN(C4CC4)CC5)ncc3C(F)(F)F)cc21` [Example 117, 7-chloro-2-cyclopropyl-N-[4-(1,1-dioxo-2,3,4,5-tetrahydrothieno[2,3-f][1,4]thiazepin-7-yl)-5-(trifluoromethyl)pyrimidin-2-yl]-3,4-dihydro-1H-isoquinolin-6-amine] stands at most 10 nM; under `CN1CCc2cc(Nc3ncc(C(F)(F)F)c(-c4cc(S(C)(=O)=O)cs4)n3)c(F)cc2C1` [Example 98, 7-fluoro-2-methyl-N-(4-(4-(methylsulfonyl)thiophen-2-yl)-5-(trifluoromethyl)pyrimidin-2-yl)-1,2,3,4-tetrahydroisoquinolin-6-amine], at most 10 nM. Under `O=S1(=O)NCCOc2sc(-c3nc(Nc4cc5c(cc4Cl)CNCC5)ncc3C(F)(F)F)cc21` [Example 85, 7-chloro-N-[4-(1,1-dioxo-3,4-dihydro-2H-thieno[2,3-b][1,4,5]oxathiazepin-7-yl)-5-(trifluoromethyl)pyrimidin-2-yl]-1,2,3,4-tetrahydroisoquinolin-6-amine] stands at most 10 nM; under `Cc1nn(C2CNC2)cc1Nc1ncc(C(F)(F)F)c(-c2cc(S(C)(=O)=O)cs2)n1` [Example 123, N-(1-(azetidin-3-yl)-3-methyl-1H-pyrazol-4-yl)-4-(4-(methylsulfonyl)thiophen-2-yl)-5-(trifluoromethyl)pyrimidin-2-amine], 10 to 50 nM; under `O=S(=O)(CCN1CCOCC1)c1csc(-c2nc(Nc3cc4c(cc3Cl)CNCC4)ncc2C(F)(F)F)c1` [Example 54, 7-chloro-N-(4-(4-((2-morpholinoethyl)sulfonyl)thiophen-2-yl)-5-(trifluoromethyl)pyrimidin-2-yl)-1,2,3,4-tetrahydroisoquinolin-6-amine], 100 to 500 nM. In the case of `Cn1ccc2sc(-c3nc(Nc4cc5c(cc4Cl)CNCC5)ncc3C(F)(F)F)cc2c1=O` [Example 30, 2-(2-((7-Chloro-1,2,3,4-tetrahydroisoquinolin-6-yl)amino)-5-(trifluoromethyl)pyrimidin-4-yl)-5-methylthieno[3,2-c]pyridin-4(5H)-one], the IC50 is at most 10 nM. Take `CCc1cc2c(cc1Nc1ncc(C(F)(F)F)c(-c3cc(C(N)=O)cs3)n1)CCNC2` [Example 9, 5-(2-((7-ethyl-1,2,3,4-tetrahydroisoquinolin-6-yl)amino)-5-(trifluoromethyl)pyrimidin-4-yl)thiophene-3-carboxamide]: the 50% inhibitory concentration (IC50) was at most 10 nM. Then `CS(=O)(=O)c1csc(-c2nc(Nc3cc4c(cc3Cl)CNC4)ncc2C(F)(F)F)c1` [Example 73, 6-chloro-N-(4-(4-(methylsulfonyl)thiophen-2-yl)-5-(trifluoromethyl)pyrimidin-2-yl)isoindolin-5-amine], with at most 10 nM.

As a reminder, the IC50 is the concentration that gives 50% inhibition.
